Measurements: patent US6444617B1, “Fused-heterocycle dicarboxylic acid diamide derivatives or salts thereof, herbicide and usage thereof” (Nihon Nohyaku Co., Ltd., priority 1998, dated 2002)

Legend:
Assay type in all cases: in vivo
[1] = tested on: monochoria (Monochoria vaginalis Presl); experiment: Test Example 2: herbicidal effect on paddy field weeds after emergence; conditions: Dosage 5 kg/ha; one-leaved stage; 21 days after treatment
How it was run: (§1)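 Weeds in flooded paddy-soil pots were grown to the one-leaved stage, then the soil was treated with the compound solution at a set dosage.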

[2] = tested on: bulrush (Scirpus juncoides Roxb.); experiment: as above; conditions: Dosage 5 kg/ha; one-leaved stage; 21 days after treatment
How it was run: as §1

[3] = tested on: barnyard grass (Echinochloa crus-galli Beauv.); experiment: as above; conditions: Dosage 5 kg/ha; one-leaved stage; 21 days after treatment
How it was run: as §1

[4] = tested on: bird's eye speedwell (Veronica persica Poir.), Vp; experiment: Test Example 3: herbicidal effect on upland weeds before emergence; conditions: dosage 5 kg/ha
How it was run: (§2)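 Pre-emergence spray of liquid prep, compound at set concentration; read at 14 d post-treatment; weed-kill rate calculated, effect graded.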

[5] = tested on: cleavers (Galium aparine L.), Ga; experiment: as above; conditions: dosage 5 kg/ha
How it was run: as §2

[6] = tested on: cocklebur (Xanthium strumarium L.), Xs; experiment: as above; conditions: dosage 5 kg/ha
How it was run: as §2

[7] = tested on: barnyard grass (Echinochloa crus-galli Beauv.), Ec; experiment: as above; conditions: dosage 5 kg/ha
How it was run: as §2

[8] = tested on: forxtail grass (Alopecurus aequalis var. amurensis Ohwi), Am; experiment: as above; conditions: foxtail grass, dosage 5 kg/ha
How it was run: as §2

[9] = tested on: velvetleaf (Abutilon theophtasti L.), At; experiment: as above; conditions: dosage 5 kg/ha
How it was run: as §2

[10] = tested on: wheat; experiment: Test Example 4: phytotoxicity to upland crop plants, treatment after emergence; conditions: dosage 5 kg/ha, sprayed after emergence, judged 14 days after treatment
How it was run: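 Weeds, soybean and wheat were sown in soil-filled vats, covered with soil and grown to set leaf stages before a post-emergence spray of an agent containing the compound at a prescribed concentration. Weed-killing rate and crop phytotoxicity were assessed 14 days after treatment.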

[11] = tested on: soybean plant; experiment: as above; conditions: dosage 5 kg/ha, sprayed after emergence, judged 14 days after treatment
How it was run: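 Weeds and soybean grown in soil-filled vats to set leaf stages, then sprayed post-emergence with the compound at a prescribed concentration. Weed-killing rate and crop phytotoxicity judged 14 days after treatment.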

[12] = tested on: bird's eye speedwell (Veronica persica Poir.), Vp; experiment: Test Example 4: herbicidal effect on upland weeds after emergence; conditions: dosage 5 kg/ha; sprayed after emergence; judged 14 days after treatment
How it was run: (§3)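 Upland weeds and crop plants (soybean, wheat) are grown from seed in soil until they reach given leaf stages, then treated by spraying with the compound-containing agent; effects are judged two weeks later.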

[13] = tested on: cleavers (Galium aparine L.), Ga; experiment: as above; conditions: dosage 5 kg/ha; sprayed after emergence; judged 14 days after treatment
How it was run: as §3

[14] = tested on: cocklebur (Xanthium strumarium L.), Xs; experiment: as above; conditions: dosage 5 kg/ha; sprayed after emergence; judged 14 days after treatment
How it was run: as §3

[15] = tested on: barnyard grass (Echinochloa crus-galli Beauv.), Ec; experiment: as above; conditions: dosage 5 kg/ha; sprayed after emergence; judged 14 days after treatment
How it was run: as §3

[16] = tested on: forxtail grass (Alopecurus aequalis var. amurensis Ohwi), Am; experiment: as above; conditions: dosage 5 kg/ha; sprayed after emergence; judged 14 days after treatment
How it was run: as §3

[17] = tested on: velvetleaf (Abutilon theophtasti L.), At; experiment: as above; conditions: dosage 5 kg/ha; sprayed after emergence; judged 14 days after treatment
How it was run: as §3

[18] = tested on: soybean plant (So); experiment: Test Example 3: phytotoxicity to upland crop plants, treatment before emergence; conditions: dosage 5 kg/ha
How it was run: (§4)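 Crops treated before emergence with sprayed liquid preparation of compound (prescribed concentration). Day 14: phytotoxicity graded per criterion.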

[19] = tested on: wheat (Wh); experiment: as above; conditions: dosage 5 kg/ha
How it was run: as §4

[20] = tested on: bulrush (Scirpus juncoides Roxb.); experiment: Test Example 1: herbicidal effect on paddy field weeds before emergence; conditions: Dosage 5 kg/ha
How it was run: (§5)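 Grading reflects percent control relative to untreated plots, evaluated three weeks post-application. Treatment was a soil application of compound solution, predetermined dose, made to paddy-state pots before weed seeds germinated.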

[21] = tested on: barnyard grass (Echinochloa crus-galli Beauv.); experiment: as above; conditions: Dosage 5 kg/ha
How it was run: as §5

Compound | Post-emergence treatment Monochoria (herbicidal effect) [1] | Post-emergence treatment Bulrush (herbicidal effect) [2] | Post-emergence treatment Barnyard grass (herbicidal effect) [3] | Herbicidal effect Vp [4] | Herbicidal effect Ga [5] | Herbicidal effect Xs [6] | Herbicidal effect Ec [7] | Herbicidal effect Am [8] | Herbicidal effect At [9] | Phytotoxicity Wh [10] | Phytotoxicity So [11] | Herbicidal effect Vp [12] | Herbicidal effect Ga [13] | Herbicidal effect Xs [14] | Herbicidal effect Ec [15] | Herbicidal effect Am [16] | Herbicidal effect At [17] | Phytotoxicity So [18] | Phytotoxicity Wh [19] | Pre-emergence treatment Bulrush (herbicidal effect) [20] | further results
CCCNC(=O)c1nc2c(cc1C(=O)Nc1c(CC)ccc(Cl)c1CC)c(C)nn2C [compound 1112] | 5 (Weed-killing rate is 100%.) | 5 (Weed-killing rate is 100%.) | 5 (Weed-killing rate is 100%.) | 5 (Weed-killing rate is 100%.) | 5 (Weed-killing rate is 100%.) | 5 (Weed-killing rate is 100%.) | 5 (Weed-killing rate is 100%.) | 5 (Weed-killing rate is 100%.) | 5 (Weed-killing rate is 100%.) | 5 (Crop-killing rate is 100%.) | 5 (Crop-killing rate is 100%.) | 5 (Weed-killing rate is 100%.) | 5 (Weed-killing rate is 100%.) | 5 (Weed-killing rate is 100%.) | 5 (Weed-killing rate is 100%.) | 5 (Weed-killing rate is 100%.) | 5 (Weed-killing rate is 100%.) | 5 (Crop-killing rate is 100%.) | 5 (Crop-killing rate is 100%.) | 5 (Weed-killing rate is 100%.) | Pre-emergence treatment Barnyard grass (herbicidal effect) [21]: 5 (Weed-killing rate is 100%.)
CCCNC(=O)c1nc2nn(C)cc2cc1C(=O)Nc1c(CC)ccc(Cl)c1CC [compound 1124] | 5 (Weed-killing rate is 100%.) | 5 (Weed-killing rate is 100%.) | 5 (Weed-killing rate is 100%.) | 5 (Weed-killing rate is 100%.) | 5 (Weed-killing rate is 100%.) | 5 (Weed-killing rate is 100%.) | 5 (Weed-killing rate is 100%.) | 5 (Weed-killing rate is 100%.) | 5 (Weed-killing rate is 100%.) | 5 (Crop-killing rate is 100%.) | 5 (Crop-killing rate is 100%.) | 5 (Weed-killing rate is 100%.) | 5 (Weed-killing rate is 100%.) | 5 (Weed-killing rate is 100%.) | 5 (Weed-killing rate is 100%.) | 5 (Weed-killing rate is 100%.) | 5 (Weed-killing rate is 100%.) | 5 (Crop-killing rate is 100%.) | 5 (Crop-killing rate is 100%.) | 5 (Weed-killing rate is 100%.) | Pre-emergence treatment Barnyard grass (herbicidal effect) [21]: 5 (Weed-killing rate is 100%.)
CCCNC(=O)c1nc2cnn(C)c2cc1C(=O)Nc1c(CC)ccc(Cl)c1CC [compound 1173] | 5 (Weed-killing rate is 100%.) | 5 (Weed-killing rate is 100%.) | 5 (Weed-killing rate is 100%.) | 5 (Weed-killing rate is 100%.) | 5 (Weed-killing rate is 100%.) | 5 (Weed-killing rate is 100%.) | 5 (Weed-killing rate is 100%.) | 5 (Weed-killing rate is 100%.) | 5 (Weed-killing rate is 100%.) | 5 (Crop-killing rate is 100%.) | 5 (Crop-killing rate is 100%.) | 5 (Weed-killing rate is 100%.) | 5 (Weed-killing rate is 100%.) | 5 (Weed-killing rate is 100%.) | 5 (Weed-killing rate is 100%.) | 5 (Weed-killing rate is 100%.) | 5 (Weed-killing rate is 100%.) | 5 (Crop-killing rate is 100%.) | 5 (Crop-killing rate is 100%.) | 5 (Weed-killing rate is 100%.) | Pre-emergence treatment Barnyard grass (herbicidal effect) [21]: 5 (Weed-killing rate is 100%.)
CCCNC(=O)c1nc2c(C)nn(C)c2cc1C(=O)Nc1c(CC)ccc(Cl)c1CC [compound 1197] | 5 (Weed-killing rate is 100%.) | 5 (Weed-killing rate is 100%.) | 5 (Weed-killing rate is 100%.) | 5 (Weed-killing rate is 100%.) | 5 (Weed-killing rate is 100%.) | 5 (Weed-killing rate is 100%.) | 5 (Weed-killing rate is 100%.) | 5 (Weed-killing rate is 100%.) | 5 (Weed-killing rate is 100%.) | 5 (Crop-killing rate is 100%.) | 5 (Crop-killing rate is 100%.) | 5 (Weed-killing rate is 100%.) | 5 (Weed-killing rate is 100%.) | 5 (Weed-killing rate is 100%.) | 5 (Weed-killing rate is 100%.) | 5 (Weed-killing rate is 100%.) | 5 (Weed-killing rate is 100%.) | 5 (Crop-killing rate is 100%.) | 5 (Crop-killing rate is 100%.) | 5 (Weed-killing rate is 100%.) | Pre-emergence treatment Barnyard grass (herbicidal effect) [21]: 5 (Weed-killing rate is 100%.)
CCCNC(=O)c1nc2ncn(C)c2cc1C(=O)Nc1c(CC)ccc(Cl)c1CC [compound 1209] | 5 (Weed-killing rate is 100%.) | 5 (Weed-killing rate is 100%.) | 5 (Weed-killing rate is 100%.) | 5 (Weed-killing rate is 100%.) | 5 (Weed-killing rate is 100%.) | 5 (Weed-killing rate is 100%.) | 5 (Weed-killing rate is 100%.) | 5 (Weed-killing rate is 100%.) | 5 (Weed-killing rate is 100%.) | 5 (Crop-killing rate is 100%.) | 5 (Crop-killing rate is 100%.) | 5 (Weed-killing rate is 100%.) | 5 (Weed-killing rate is 100%.) | 5 (Weed-killing rate is 100%.) | 5 (Weed-killing rate is 100%.) | 5 (Weed-killing rate is 100%.) | 5 (Weed-killing rate is 100%.) | 5 (Crop-killing rate is 100%.) | 5 (Crop-killing rate is 100%.) | 5 (Weed-killing rate is 100%.) | Pre-emergence treatment Barnyard grass (herbicidal effect) [21]: 5 (Weed-killing rate is 100%.)
